These results are taken from patent US20250171821A1, “HIF-1 ACTIVATORS AND USES THEREOF” (Ramot at Tel-Aviv University Ltd., priority 2022, published 2025).

Entries after “also recorded” stand apart in the source; their conditions may differ.

Experiment [1] concerns ischemic anastomoses. The note with it: cited from earlier work.
Experiment [2] deals with mice. As to conditions: after dextran sulfate sodium-induced intestinal fibrosis; cited from earlier work.
Experiment [3] has as its system MG-63 cells. Briefly: Alizarin Red S staining of mineralization in MG-63 cells. Format: cell-based, human. On the procedure:
(§1) The cultivation of MG-63 was performed in α-MEM growth medium (Sartorius). Osteogenic differentiation was performed by plating 20,000 cells/well into a sterile 24-well plate. Cells were left to adhere for 1 day and then switched to the osteogenic medium consisting of a minimum essential medium alpha (α-MEM) supplemented with 10% heat-inactivated FBS, 2 mM L-glutamine, 100 U/mL penicillin, 100 μg/mL streptomycin, 50 μM ascorbate-2-phosphate, and 10 mM β-glycerophosphate. Medium was changed every 2-3 days together with peptide supplementation. Seven to twenty-eight days after induction of differentiation, the production of extracellular calcified mineral matrix was visualized by Alizarin Red staining (Sigma) and Picrosirius Red (Scytek).
To visualize calcium deposition upon osteogenic differentiation, an Alizarin-red-S (Sigma) stock solution of 40 mM was used. Cells were washed three times with PBS and fixed in 1 mL of 4% PFA for 20 minutes at room temperature (RT). After fixation, cells were rinsed with double distilled water (DDW) and stained for 10 minutes in 1 mL Alizarin-red-S stock solution under continuous rotation. To diminish unspecific staining, cells were washed extensively three times with PBS. Stained samples were stored at 4° C. covered with PBS. […]

In experiment [4] the test system is MG-63 cells. Description: Picrosirius red staining of collagen fibers in MG-63 cells. Format: cell-based, human. The note with it: 7 days, osteogenic differentiation medium plus peptide. As for the experimental part: as §1
To visualize the extent of ECM formation, Picrosirius red dye was used to stain Collagen-I and Collagen-III. Treated cells were fixed with 4% PFA, washed with PBS and dried at 37° C. or at room temperature (RT) for overnight incubation. Then, the cells were stained with 400 μL of Sirius Red dye (0.1% in saturated picric acid) for 1 hour with mild shaking. The stained cell layers were then extensively washed with 0.01 N HCl to remove all non-bounded dye. After rinsing, photographs were taken under confocal microscope using polarized light.
Evaluation of Collagen fibers in MG-63 cells upon Def16-EPAS1 treatment—To evaluate the variation in Collagen fiber levels between normal MG-63 cells and MG-63 cells treated with the Def16-EPAS1 peptide, cells were supplemented to a 7-day incubation period with osteogenic differentiation medium (which includes 50 μg/mL ascorbic acid and 10 mM β-glycerophosphate), along with the addition of Def16-EPAS1 peptide. Collagen fibers were highlighted/stained by Picro-Sirius Red staining according to the manufacturer's instructions (FIG. 12). The PSR staining allows to clearly distinguish between Collagen-I and III fibers in cell culture. In the evaluation of polarizing colors of collagens fibers, Collagen-I and III were polarized with 488 nm and 647 nm wavelength, respectively, and visualized with the confocal microscope.

The test system of experiment [5] is Bovine Dermal Fibroblast. Description: Collagen-I immunofluorescence in bovine dermal fibroblasts. The experiment is classed as cell-based. The note with it: 48 hours. As for the experimental part:
For microscopy images, cells were cultured in a 24-well plate and incubated with medium supplemented with the indicated concentrations of the treating entity (e.g., peptides or DFO) at 37° C. under 5% CO2. Cells were then washed additional three times with cold phosphate-buffered saline (PBS), following a 20 minute fixation in a 4% paraformaldehyde (PFA) in PBS and extensively washed three times with PBS to remove the PFA, followed by a 20 minute wash with blocking and penetration solution (PBS with 0.1% Triton X-100 and 2% BSA). Fixed cells were incubated with antibodies for 1 hour at 25° C., washed, and developed together with fluorescence-tagged secondary antibodies (Alexa 488 and 647, Abcam). Cell nuclei were stained with 1 mg/mL 4′,6-diamidino-2-phenylindole (DAPI Staining Solution ab228549, Abcam). Images were taken using a ZEISS LSM 900 in confocal mode, using Zen 3.1. Fluorescence readouts were obtained at ex/em of 358/461, 495/519 nm, and 652/668 nm for blue, green, and red, respectively.
Effect of Def16-EPAS1 on Collagen accumulation in Bovine Dermal Fibroblast—To test HIF mimicking peptide and its effect on Collagen accumulation in additional mammalian cells, the present inventors have examined the effect of the Def16-EPAS1 peptide on Bovine Dermal Fibroblast. […]

Take `COC(=O)CNC(=O)C(=O)OC` [DMOG]: the levels of collagen result in experiment [1] was “increased levels of collagen”. For the same molecule, the collagen deposition result in experiment [2] is listed as “significant decrease in collagen deposition”.
Regarding “Def16-EPAS1: GRCRGFRRRCFCTTHCELDLETLAPYIPMDGEDFQL (SEQ ID NO: 3): Def16 cell penetrating sequence fused to the EPAS1 peptide (Def16-EPAS1; MOD_RES 1 Can be FITC-labeled; MOD_RES 3 Can be FITC-labeled; MOD_RES 10 Can be FITC-labeled; MOD_RES 12 Can be FITC-labeled; MOD_RES 16..17 Can be FITC-labeled; MOD_RES 19 Can be FITC-labeled; MOD_RES 21 Can be FITC-labeled; MOD_RES 30 Can be FITC-labeled; MOD_RES 32..33 Can be FITC-labeled; MOD_RES 36 Can be FITC-labeled)”, in experiment [3] (5 μM or 20 μM peptide, 7 days, osteogenic differentiation medium), the “deposition of calcium (mineralized nodules)” value is listed as “strong induction of deposition of calcium; also recorded: Typical mineralized nodules were observed”. For the same molecule, the “mineralizing matrix formation (Alizarin Red S and Picrosirius Red)” value in experiment [3] (10 μM peptide, 7, 14, 21 and 28 days, differentiation medium) was “form a mineralizing matrix”. Besides, in experiment [4], the Collagen-I fibers result was “over-production” and the Collagen-III fibers entry is listed as “over-production”. In experiment [4] (listed as DEF16-EPAS1), the Collagen-I fibers result is on record as “enhanced levels” and the Collagen-III fibers result is “enhanced levels”. For the same molecule, the Collagen fibril morphology entry in experiment [5] (higher peptide concentrations) is listed as “thick fibril bundles of Collagen were observed”. For the same molecule, the “Collagen-I levels compared to baseline of nontreated cells” value in experiment [5] (peptide concentration above 10 μM) is given as “more than 2 fold”.
